Reference: patent US20210047324A1 (Aptinyx Inc., priority 2018, published 2021)

How the values were obtained:
NMDAR2A = target: T1, NMDAR2A (Homo sapiens, UniProt Q12879); experiment: NMDAR agonist assay, [3H]MK-801 binding, NMDAR2A expressing HEK cell membranes; assay type: biochemical; settings: 50 μM glutamate
T1 construct: expressed in transfected cells; host or cells: HEK cells (membrane extract)
Summary of the method: (§1)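 Membranes from HEK cells (300 μg protein) preincubated 15 min with 50 μM glutamate plus compound (1×10^−15–1×10^−7 M) or 1 mM glycine, then with 0.3 μCi [3H]MK-801 for 15 min at 25° C. (nonequilibrium); filter-bound DPM, baseline-subtracted, expressed as % of 1 mM glycine; EC50 and % maximum from three-parameter fit.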

NMDAR2B = target: T2, NMDAR2B (Homo sapiens, UniProt Q13224); experiment: NMDAR agonist assay, [3H]MK-801 binding, NMDAR2B expressing HEK cell membranes; assay type: biochemical; settings: 50 μM glutamate
T2 construct: expressed in transfected cells; host or cells: HEK cells (membrane extract)
T2 sequence (Q13224 27-1484, species assumed, other chains not shown): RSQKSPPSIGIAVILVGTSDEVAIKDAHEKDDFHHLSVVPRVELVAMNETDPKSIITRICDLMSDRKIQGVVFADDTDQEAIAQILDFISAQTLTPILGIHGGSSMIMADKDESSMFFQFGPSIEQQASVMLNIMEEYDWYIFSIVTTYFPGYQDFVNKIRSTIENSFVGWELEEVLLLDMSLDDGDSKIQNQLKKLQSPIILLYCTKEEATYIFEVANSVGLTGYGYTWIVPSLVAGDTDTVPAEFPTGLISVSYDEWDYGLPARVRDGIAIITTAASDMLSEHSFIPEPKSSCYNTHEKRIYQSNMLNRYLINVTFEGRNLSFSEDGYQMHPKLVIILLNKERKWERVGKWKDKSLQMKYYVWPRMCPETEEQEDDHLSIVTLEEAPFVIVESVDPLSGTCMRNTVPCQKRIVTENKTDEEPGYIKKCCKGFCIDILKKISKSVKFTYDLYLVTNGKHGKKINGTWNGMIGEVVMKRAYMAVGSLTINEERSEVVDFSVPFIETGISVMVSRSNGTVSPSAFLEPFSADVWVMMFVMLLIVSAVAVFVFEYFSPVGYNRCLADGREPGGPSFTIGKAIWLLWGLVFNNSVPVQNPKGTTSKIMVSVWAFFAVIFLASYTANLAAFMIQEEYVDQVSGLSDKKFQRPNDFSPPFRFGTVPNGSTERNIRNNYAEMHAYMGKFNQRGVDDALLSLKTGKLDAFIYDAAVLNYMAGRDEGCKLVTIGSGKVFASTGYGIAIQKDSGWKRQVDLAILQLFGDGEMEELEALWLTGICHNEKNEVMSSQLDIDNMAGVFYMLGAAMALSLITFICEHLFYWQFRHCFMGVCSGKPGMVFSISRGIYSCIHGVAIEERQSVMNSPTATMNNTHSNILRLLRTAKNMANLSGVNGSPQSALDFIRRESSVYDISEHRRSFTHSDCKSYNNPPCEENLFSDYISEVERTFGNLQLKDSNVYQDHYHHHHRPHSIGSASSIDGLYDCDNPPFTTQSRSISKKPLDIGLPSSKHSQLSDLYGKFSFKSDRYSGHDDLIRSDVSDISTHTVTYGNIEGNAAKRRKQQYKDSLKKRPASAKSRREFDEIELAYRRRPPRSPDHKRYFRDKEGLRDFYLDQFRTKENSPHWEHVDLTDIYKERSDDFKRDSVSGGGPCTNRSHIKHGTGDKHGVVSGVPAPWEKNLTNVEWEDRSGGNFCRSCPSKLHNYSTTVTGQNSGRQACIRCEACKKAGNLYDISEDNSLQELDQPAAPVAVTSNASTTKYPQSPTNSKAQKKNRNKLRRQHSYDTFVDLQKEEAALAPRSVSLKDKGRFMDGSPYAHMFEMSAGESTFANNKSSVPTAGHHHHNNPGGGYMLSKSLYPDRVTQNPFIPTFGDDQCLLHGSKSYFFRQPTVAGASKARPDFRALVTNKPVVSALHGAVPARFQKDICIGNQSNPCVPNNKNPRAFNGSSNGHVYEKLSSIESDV
Summary of the method: as §1

NMDAR2C = target: T3, NMDAR2C (Homo sapiens, UniProt Q14957); experiment: NMDAR agonist assay, [3H]MK-801 binding, NMDAR2C expressing HEK cell membranes; assay type: biochemical; settings: 50 μM glutamate
T3 construct: expressed in transfected cells; host or cells: HEK cells (membrane extract)
T3 sequence (Q14957 20-1233, species assumed, other chains not shown): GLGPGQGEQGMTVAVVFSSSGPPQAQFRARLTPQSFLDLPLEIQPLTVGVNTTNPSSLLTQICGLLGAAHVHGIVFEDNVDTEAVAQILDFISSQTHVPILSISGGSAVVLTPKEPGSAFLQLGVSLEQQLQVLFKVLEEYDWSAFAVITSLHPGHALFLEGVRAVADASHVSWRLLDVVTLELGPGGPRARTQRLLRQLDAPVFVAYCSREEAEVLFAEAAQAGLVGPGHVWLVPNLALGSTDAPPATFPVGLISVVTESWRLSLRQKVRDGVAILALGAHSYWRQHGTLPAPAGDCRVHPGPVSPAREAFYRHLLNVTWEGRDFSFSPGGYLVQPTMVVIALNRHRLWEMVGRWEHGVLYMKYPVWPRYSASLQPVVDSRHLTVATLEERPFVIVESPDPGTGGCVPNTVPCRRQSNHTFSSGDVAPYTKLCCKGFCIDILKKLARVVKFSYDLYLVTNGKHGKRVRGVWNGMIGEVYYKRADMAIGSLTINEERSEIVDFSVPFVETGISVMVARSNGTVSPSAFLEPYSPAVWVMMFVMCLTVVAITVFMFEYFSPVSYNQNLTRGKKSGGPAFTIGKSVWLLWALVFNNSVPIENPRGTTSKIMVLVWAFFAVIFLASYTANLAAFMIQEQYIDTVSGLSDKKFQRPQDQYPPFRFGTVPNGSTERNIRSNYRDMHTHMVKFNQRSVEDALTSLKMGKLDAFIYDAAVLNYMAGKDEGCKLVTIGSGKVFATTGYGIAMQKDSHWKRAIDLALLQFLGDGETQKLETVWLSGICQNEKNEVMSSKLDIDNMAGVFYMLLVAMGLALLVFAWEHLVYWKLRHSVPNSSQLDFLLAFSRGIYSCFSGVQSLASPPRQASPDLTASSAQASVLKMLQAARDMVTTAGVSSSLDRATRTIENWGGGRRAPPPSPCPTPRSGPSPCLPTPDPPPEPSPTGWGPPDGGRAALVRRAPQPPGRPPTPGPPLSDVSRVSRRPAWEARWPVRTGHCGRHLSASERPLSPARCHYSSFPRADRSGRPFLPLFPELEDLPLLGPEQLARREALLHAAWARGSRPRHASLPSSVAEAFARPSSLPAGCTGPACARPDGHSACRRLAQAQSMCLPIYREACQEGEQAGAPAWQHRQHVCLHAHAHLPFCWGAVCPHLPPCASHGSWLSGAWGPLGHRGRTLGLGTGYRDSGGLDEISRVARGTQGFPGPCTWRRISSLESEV
Procedure: (§2) Assays were conducted as described by Moskal et al., “GLYX-13: a monoclonal antibody-derived peptide that acts as an N-methyl-D-aspartate receptor modulator,” Neuropharmacology, 49, 1077-87, 2005. These studies were designed to determine if the test compounds act to facilitate NMDAR activation in NMDAR2A, NMDAR2B, NMDAR2C or NMDAR2D expressing HEK cell membranes as measured by increases in [^3H]MK-801 binding.
(§3) In the assay, 300 μg of NMDAR expressing HEK cell membrane extract protein was preincubated for 15 minutes at […] in the presence of saturating concentrations of glutamate (50 μM) and varying concentrations of test compound (1×10^−15M-1×10^−7M), or 1 mM glycine. Following the addition of 0.3 μCi of [3H]MK-801 (22.5 Ci/mmol), reactions were again incubated for 15 minutes at 25° C. (nonequilibrium conditions). Bound and free [3H]MK-801 were separated via rapid filtration using a Brandel apparatus.
(§4) In analyzing the data, the DPM (disintegrations per minute) of [3H]MK-801 remaining on the filter were measured for each concentration of test compound or for 1 mM glycine. The DPM values for each concentration of a ligand (N=2) were averaged. The baseline value was determined from the best fit curve of the DPM values modeled using the GraphPad program and the log(agonist) vs. response (three parameters) algorithm was then subtracted from all points in the dataset. The % maximal [^3H]MK-801 binding was then calculated relative to that of 1 mM glycine: all baseline subtracted DPM values were divided by the average value for 1 mM glycine. The EC50 and % maximal activity were then obtained from the best fit curve of the % maximal [3H]MK-801 binding data modelled using the GraphPad program and the log(agonist) vs. response (three parameters) algorithm.
(§5) The tables below summarize the results for the wild type […] NMDAR2A, NMDAR2B, NMDAR2C, and NMDAR2D, and whether the compound is not an agonist (−), is an agonist (+), or is a strong agonist (++), where column A is based on the % maximal [3H]MK-801 binding relative to 1 mM glycine (−=0; <100%=+; and >100%=++); and column B is based on log EC50 values (0=−; ≥1×10^−9 M (e.g., −8)=+; and <1×10^−9 M (e.g., −10)=++).

NMDAR2D [1] = target: T4, NMDAR2D (Homo sapiens, UniProt O15399); experiment: NMDAR agonist assay, [3H]MK-801 binding, NMDAR2D expressing HEK cell membranes; assay type: biochemical; settings: 50 μM glutamate; relative to 1 mM glycine
T4 construct: expressed in transfected cells; host or cells: HEK cells (membrane extract)
Procedure: as §2, §3, §4, §5

NMDAR2D [2] = target: T5, NMDAR2D (Homo sapiens, UniProt O15399+Q05586); experiment: as above; assay type: biochemical; settings: 50 μM glutamate; read-out: NMDAR2D B: log EC50 (converted)
T5 construct: expressed in transfected cells; host or cells: HEK cells (membrane extract)
Procedure: as §2, §3, §4, §5

[3] = IV pharmacokinetics in Sprague Dawley rats; assay type: in vivo; settings: Sprague-Dawley, rat, in vivo, iv, 2 mg/kg, normal saline
Procedure: Sprague Dawley rats were dosed intravenously using a normal saline formulation containing 2 mg/kg of the compounds identified in the below table. The table below summarizes the results of the IV pharmacokinetics.

[4] = Oral pharmacokinetics in Sprague Dawley rats (plasma, brain, CSF); assay type: in vivo; settings: rat, 10 mg/kg
Procedure: In another experiment, Sprague Dawley rats were dosed per os (oral gavage) using a normal saline formulation containing 10 mg/kg of the compounds identified in the table below. Plasma, brain, and CSF samples were analyzed at various time points over a 24 hour period. The table below summarizes the results of the oral pharmacokinetics, where the first three values (Tmax, Cmax and AUClast) are plasma values.

Sprague Dawley rats = experiment: Porsolt forced swim test; assay type: in vivo; settings: 0.1 mg/kg
[5] = Microsomal stability (Human); assay type: in vitro ADME; settings: after 60 minutes
Procedure: (§6) Microsomal stability of disclosed compounds was investigated. The following table indicates the percent of compound remaining after 60 minutes.

[6] = Microsomal stability (Rat); assay type: in vitro ADME; settings: after 60 minutes
Procedure: as §6

Plasma stability (Human) = assay type: in vitro ADME; settings: after 60 minutes
Procedure: (§7) Plasma stability of disclosed compounds was investigated. The following table indicates the percent of compound remaining after 60 minutes.

Plasma stability (Rat) = assay type: in vitro ADME; settings: after 60 minutes
Procedure: as §7

T1 sequence (Q12879 23-1464, species assumed, other chains not shown): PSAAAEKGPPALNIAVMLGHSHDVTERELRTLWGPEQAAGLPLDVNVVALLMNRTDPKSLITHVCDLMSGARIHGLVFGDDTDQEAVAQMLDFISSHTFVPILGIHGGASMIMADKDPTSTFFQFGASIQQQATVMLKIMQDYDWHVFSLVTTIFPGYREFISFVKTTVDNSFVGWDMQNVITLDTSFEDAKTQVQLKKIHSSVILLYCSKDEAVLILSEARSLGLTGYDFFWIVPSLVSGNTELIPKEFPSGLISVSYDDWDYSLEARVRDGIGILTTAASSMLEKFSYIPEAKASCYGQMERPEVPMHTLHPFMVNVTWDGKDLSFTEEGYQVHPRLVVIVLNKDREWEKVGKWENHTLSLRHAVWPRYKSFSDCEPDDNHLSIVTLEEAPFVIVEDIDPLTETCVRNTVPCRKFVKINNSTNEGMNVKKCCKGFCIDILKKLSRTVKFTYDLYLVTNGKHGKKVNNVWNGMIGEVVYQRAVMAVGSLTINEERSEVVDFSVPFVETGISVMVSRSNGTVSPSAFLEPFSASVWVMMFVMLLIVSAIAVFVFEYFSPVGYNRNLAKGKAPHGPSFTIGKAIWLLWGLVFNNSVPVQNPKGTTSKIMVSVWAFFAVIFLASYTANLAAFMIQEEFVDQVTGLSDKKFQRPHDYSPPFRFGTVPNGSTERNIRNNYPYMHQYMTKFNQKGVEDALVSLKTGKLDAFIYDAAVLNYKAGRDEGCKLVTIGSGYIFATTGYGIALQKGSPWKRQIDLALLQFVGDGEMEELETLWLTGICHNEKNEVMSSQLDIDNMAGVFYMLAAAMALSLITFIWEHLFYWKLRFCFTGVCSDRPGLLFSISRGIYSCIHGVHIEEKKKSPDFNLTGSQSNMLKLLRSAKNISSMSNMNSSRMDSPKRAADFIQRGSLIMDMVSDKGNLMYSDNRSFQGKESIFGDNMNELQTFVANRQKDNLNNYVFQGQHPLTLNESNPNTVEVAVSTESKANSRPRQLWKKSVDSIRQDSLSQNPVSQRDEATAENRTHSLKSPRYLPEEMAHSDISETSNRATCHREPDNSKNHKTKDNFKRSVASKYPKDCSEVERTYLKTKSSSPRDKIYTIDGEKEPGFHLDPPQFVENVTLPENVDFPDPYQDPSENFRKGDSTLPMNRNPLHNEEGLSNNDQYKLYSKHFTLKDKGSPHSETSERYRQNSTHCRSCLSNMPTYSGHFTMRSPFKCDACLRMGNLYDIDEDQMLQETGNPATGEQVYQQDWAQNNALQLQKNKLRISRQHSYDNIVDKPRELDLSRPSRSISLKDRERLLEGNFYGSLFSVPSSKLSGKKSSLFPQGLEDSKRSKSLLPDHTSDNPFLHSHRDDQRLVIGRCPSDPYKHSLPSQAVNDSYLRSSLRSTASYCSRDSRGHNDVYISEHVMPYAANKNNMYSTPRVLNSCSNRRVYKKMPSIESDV

Which EC50 (NMDAR2A; read-out: NMDAR2A B: log EC50 (converted)) does the source give for `CC(C)(C)OC(=O)N1CCCC12CCCNC2=O` (single isomer, unassigned) [EV-1, tert-butyl 6-oxo-1,7-diazaspiro[4.5]decane-1-carboxylate] here?
Its EC50 is under 1 nM.

And the Emax (NMDAR2A; 0.25 h, relative to 1 mM glycine, read-out: NMDAR2A A: % maximal [3H]MK-801 binding relative to 1 mM glycine)?
Its Emax is under 100%.

What about the EC50 (NMDAR2B; read-out: NMDAR2B B: log EC50 (converted)) of the same compound?
The EC50 was under 1 nM.

What about the Emax (NMDAR2B; relative to 1 mM glycine, read-out: NMDAR2B A: % maximal [3H]MK-801 binding relative to 1 mM glycine) of the same compound?
Its Emax is under 100%.

What about the EC50 (NMDAR2C; read-out: NMDAR2C B: log EC50 (converted)) of the same compound?
Its EC50 is under 1 nM.

What about the “NMDAR2C A: % maximal [3H]MK-801 binding relative to 1 mM glycine” value (NMDAR2C; relative to 1 mM glycine) of the same compound?
The value was “+ (<100%=+)”.

And the “NMDAR2D A: % maximal [3H]MK-801 binding relative to 1 mM glycine” value (NMDAR2D [1])?
Its value is “+ (<100%=+)”.

What about the EC50 (NMDAR2D [2]) of the same compound?
Its EC50 is under 1 nM.

What about the AUC(0-t) [3] of the same compound?
Its AUC(0-t) is 1270 ng·h/mL.

And the clearance [3]?
The clearance was 26.2 mL/min/kg.

And the half-life [3]?
Its half-life is 25.2 min.

What about the Cmax ([3]; read-out: Cmax) of the same compound?
The Cmax was 2730 ng/mL.

What about the Vd ([3]; read-out: Vss) of the same compound?
Its Vd is 0.72 L/kg.

What about the Tmax ([4]; Sprague-Dawley, po, per os, plasma, read-out: Tmax) of the same compound?
The Tmax was 15 min.

What about the AUC(0-t) ([4]; Sprague-Dawley, plasma, po, per os) of the same compound?
The AUC(0-t) was 2850 ng·h/mL.

What about the bioavailability ([4]; Sprague-Dawley, plasma, po, per os 10 mg/kg) of the same compound?
Its bioavailability is 45%.

What about the Cmax ([4]; Sprague-Dawley, plasma, po, per os, plasma, read-out: Cmax) of the same compound?
The Cmax was 3690 ng/mL.

What about the “CSF Cmax” value ([4]; per os, CSF) of the same compound?
Its value is 1414.8 ng/mL.

And the “Brain Cmax” value ([4]; per os, brain)?
Its value is 1457.4 ng/mL.

What about the “% reduction in float time” value (Sprague Dawley rats; 1 h post-dose) of the same compound?
The value was 53%.

And the Significance vs. vehicle (Sprague Dawley rats; 1 h post-dose)?
The Significance vs. vehicle was “Yes”.

And the “% reduction in float time” value (Sprague Dawley rats; 24 h post-dose)?
Its value is 45%.

What about the Significance vs. vehicle (Sprague Dawley rats; 24 h post-dose) of the same compound?
Its Significance vs. vehicle is “Yes”.

What about the “Microsomal (Human): percent of compound remaining” value [5] of the same compound?
The value was 95%.

What about the “Microsomal (Rat): percent of compound remaining” value [6] of the same compound?
The value was 100%.

What about the “Plasma (Human): percent of compound remaining” value (Plasma stability (Human)) of the same compound?
Its value is 98%.

And the “Plasma (Rat): percent of compound remaining” value (Plasma stability (Rat))?
Its value is 94%.
